PMC4965013, “Open Source Drug Discovery with the Malaria Box Compound Collection for Neglected Diseases and Beyond” (PLoS Pathogens, 2016)
pEC50, pIC50: −log10 of the molar value. Like-named read-outs stand apart in the source and are kept apart here.

Key:
T. b. brucei Squib 427 = conditions: ref [84]; read-out: Trypansoma brucei brucei Squib 427 IC50; cited from earlier work
[1] = system: HIV-1 JR-FL or HIV-1 NL4-3 pseudoviruses; test: HIV-1 pseudovirus infection luciferase; format: cell-based; conditions: Human immunodeficiency virus 1, HXB2 / NL43, read-out: HIV HXB2 % inhibition rep2 in U87 Luc
[2] = system: B. bigemina (Argentine strain); test: B. bigemina fluorescence-based growth assay; format: cell-based; conditions: Babesia bigemina
[3] = system: P. falciparum Stage V male and female gametocytes; parameters: method as in ref [74] (a number printed in a supplementary file, which may have a reference list of its own: not looked up in the article's list); conditions: 1µM; ref [74]; cited from earlier work
[4] = system: P. falciparum in vitro translation; parameters: method as in ref [19] (a number printed in a supplementary file, which may have a reference list of its own: not looked up in the article's list); conditions: 1 µM; ref [19]; cited from earlier work
[5] = Plasma protein binding human; format: in vitro ADME
Experimental: (§1) Columns GD-GJ: Wuxi Inc. data for MMV (data presented first in this paper) PK/DMPK Parameters: Fasted animals (Male CD-1 mouse, 7-9 weeks age, 30±10 g, n=3) obtained from an approved vendor (SLAC Laboratory Animal Co. Ltd., Shanghai, China or Sino-British SIPPR/BK Laboratory Animal Co. Ltd Shanghai, China) were administered with a single oral dose (140 μmol/kg) using DMSO: 1% HPMC (5:95) as a vehicle. Blood sampling was performed via the submandibular or saphenous vein (t=0.083, 0.25, 1, 2, 4, 6 and 9 h) and transferred into microcentrifuge tubes containing Sodium Heparin (1,000 IU/ml) as anti-coagulant placed on wet ice until processed for plasma by centrifugation at approximately 4°C, 3000×g for 15 min. Plasma samples were stored in polypropylene tubes, quick frozen over dry ice and kept at -70±10°C until LC/MS/MS analysis. LC/MS/MS methods for the quantitative determination compounds plasma levels were developed with an internal standard. […] (Phoenix WinNonlin, version 6.2.1, Pharsight, Mountain View, CA) and expressed as Cmax & AUC0-last. […] AUC0-last is the area under the curve expressed as >12 h*μM (Yes or No). Plasma protein binding assay (PPB) (CD-1 mouse and human) expressed as <95% bound, >95% bound, or >99% bound. Kinetic Solubility at pH 7.4 was determined by liquid chromatography/chemiluminescence nitrogen detection (LC/CLND) and was scored as greater than 20µM (Yes or No). hERG inhibition was measured at 11µM by the QPatch- HT system and is expressed as “Yes” if greater than 45% inhibited at 11µM and “No” if less than or equal to 45% inhibited at 11µM. As part of the Drug-Drug Interaction studies (DDI issues), 5 human and 1 mouse CYP isoforms (1A2, 2C9, 2C19, 2D6, 3A4-M, 3A4-T) were tested for inhibition assay at 10 µM. […] Otherwise DDI issues were scored as “No”. Positive and negative controls were run for each assay (Table 1).

T. equi (USDA strain) = test: T. equi fluorescence-based growth assay; format: cell-based; conditions: Theileria equi
[6] = system: HIV-1 JR-FL or HIV-1 NL4-3 viruses; test: HIV-1 viral production p24 ELISA; format: cell-based
Experimental: Columns FK-GB, Moore group (data presented first in this paper). HIV and HIV-producing cell lines, toxicity and viral suppression. […] MMV compounds were incubated with HIV-1 JR-FL or HIV-1 NL4-3 pseudoviruses and U87-CD4-CCR5 or U87-CD4-CXCR4 cells (obtained through the NIH AIDS Reagent Program, Division of AIDS, NIAID, NIH: U87 CD4+CCR5+ Cells from Dr. HongKui Deng and Dr. Dan R. Littman) respectively for 3 days. Cells were assayed for infection by luciferase production (Bright-Glo Luciferase Substrate, Promega) and cell viability by MTT assay. […] MMV compounds were next incubated with HIV-1 JR-FL or HIV-1 NL4-3 viruses and U87-CD4-CCR5 or U87-CD4-CXCR4 cells respectively for 7 days. Cell supernatants were assayed for viral production by p24 ELISA [153] and cell viability by MTT assay. […] DMSO (5%) was completely toxic to all cells (based on visual inspection) and served as the positive control for MTT assays.

P. falciparum HB3 = test: Stage-specificity / mitochondrial integrity image assay Ayong; format: cell-based; conditions: 10µM
[7] = Plasma protein binding mouse; format: in vitro ADME; conditions: CD-1, mouse
Experimental: as §1

[8] = system: Entamoeba histolytica Rahman; parameters: method as in ref [87] (a number printed in a supplementary file, which may have a reference list of its own: not looked up in the article's list); conditions: read-out: Entamoeba histolytica Rahman EC50 (30 means >30); ref [87]; cited from earlier work
[9] = system: S. mansoni newly transformed schistosomula (NTS); parameters: method as in ref [91] (a number printed in a supplementary file, which may have a reference list of its own: not looked up in the article's list); conditions: ref [91]; read-out: Schistosoma mansoni newly transformed schistosomula EC50 J. Keiser; cited from earlier work
[10] = system: Leishmania infantum MHOM/MA/BE/67; conditions: ref [84]; read-out: Leishmania infantum EC50 intracellular amastigotes in primary macrophages; cited from earlier work
[11] = system: U87-CD4-CCR5 or U87-CD4-CXCR4 cells; test: U87 cell viability MTT; format: cell-based; conditions: for U87 % cell death rep3 (X4 P24 Washout expt): 5uM; for U87 % Cell Death rep3 (R5 P24 Washout expt) / U87 % cell death rep3 (R5 P24 NO Washout expt) / U87 % cell death rep3 (X4 P24 NO Washout expt) / U87 Luc % cell death rep1 / U87 Luc % cell death rep2: 5µM
Trypanosoma cruzi = test: T. cruzi Scynexis; format: cell-based
[12] = system: P. falciparum NF54Pfs16 gametocytes stage I-III; conditions: ref [61], cited from earlier work
[13] = Kinetic Solubility at pH 7.4 (LC/CLND); format: physicochemical; conditions: pH 7.4, aqueous buffer, kinetic from dmso stock; read-out: Kinetic Solubility >20µM at pH 7.4
Experimental: as §1

[14] = Human immunodeficiency virus 1, NL43, read-out: HIV R5 % inhibition rep3 in U87 (P24 Washout)
[15] = Human immunodeficiency virus 1, NL43, read-out: HIV X4 % inhibition rep3 in U87 (P24 NO Washout)
[16] = Human immunodeficiency virus 1, NL43, read-out: HIV X4 %inhibition rep3 in U87 (P24 Washout)
[17] = Human immunodeficiency virus 1, NL43, read-out: HIV R5 % inhibition rep3 in U87 (P24 NO Washout)

Row | Compound | inhibition at 5 µM [1] [%] | pEC50 [2] | Male gametocyte Stage V % inhibition of gamete formation [3] [%] | female gametocyte Stage V % inhibition of gamete formation [3] [%] | Translation Inhibitors (nl = 1.0, in vitro translation with P. falciparum lysate) [4] | fraction unbound [5] | pEC50 (T. equi (USDA strain)) | inhibition at 5 µM [6, 14] [%] | inhibition at 5 µM [6, 15] [%] | inhibition at 5 µM [6, 16] [%] | fraction unbound [7] | pEC50 [8] | pEC50 [9] | U87 % cell death rep3 (X4 P24 Washout expt) [11] [%] | U87 % Cell Death rep3 (R5 P24 Washout expt) [11] [%] | U87 % cell death rep3 (R5 P24 NO Washout expt) [11] [%] | U87 % cell death rep3 (X4 P24 NO Washout expt) [11] [%] | U87 Luc % cell death rep1 [11] [%] | U87 Luc % cell death rep2 [11] [%] | inhibition at 5 µM (Trypanosoma cruzi) [%] | also measured
1 | CCN(CC)c1cc(C)c2cc(NC(=O)c3cccc(OC)c3)ccc2n1 [MMV000498] | 55 | 5.05 | -1.33 | -22 | 0.87 | < 0.01 | 6.34 | -9 | -118 | -40 | < 0.01 | < 4.52 | < 4.48 | -4 | 1.63 | 33 | 13 | 21 | 64 | 98 | pIC50 (T. b. brucei Squib 427): 4.85; P. falciparum HB3 early ring (ER) stage activity (P. falciparum HB3): ✖; P. falciparum HB3 late ring (LR) stage activity (P. falciparum HB3): ✖; P. falciparum HB3 trophozoite (T) stage activity (P. falciparum HB3): ✖; pEC50 [10]: 4.79; gametocyte early stage (I-III) luciferase % inhibition ([12]; 0.5µM): -15%; gametocyte early stage (I-III) luciferase % inhibition ([12]; 2.5µM): -18%; gametocyte early stage (I-III) luciferase % inhibition ([12]; 5µM): -3.81%; solubility kinetic [13]: < 20 µM
2 | COc1cc2cc(C(=O)Nc3ccccc3)c(N)nc2cc1OC [MMV006767] | 51 | 4.68 | 22 | -10 | 0.75 | > 0.05 | 5.52 | 9 | 104 | 56 | > 0.05 | < 4.52 | < 4.48 | 51 | -0.103 | 95 | 106 | 75 | 43 | 86 | inhibition at 5 µM [6, 17]: 103%; P. falciparum HB3 late ring (LR) stage activity (P. falciparum HB3): T,S; P. falciparum HB3 trophozoite (T) stage activity (P. falciparum HB3): ✖; gametocyte early stage (I-III) luciferase % inhibition ([12]; 0.5µM): -7%; gametocyte early stage (I-III) luciferase % inhibition ([12]; 2.5µM): 7.41%; gametocyte early stage (I-III) luciferase % inhibition ([12]; 5µM): 19%; solubility kinetic [13]: > 20 µM
3 | CCOC(=O)c1cnc2ccc(OC)cc2c1NCc1ccccc1 [MMV665813] | -1.56 | 6.00 | -13 | -41 | 1.47 | < 0.01 | 4.85 | -13 | 20 | 16 | < 0.01 | < 4.52 | < 4.48 | 12 | -10 | -9 | 46 | -52 | 36 | -49 | pIC50 (T. b. brucei Squib 427): 4.83; inhibition at 5 µM [6, 17]: -50%; pEC50 [10]: 5.00; gametocyte early stage (I-III) luciferase % inhibition ([12]; 0.5µM): -13%; gametocyte early stage (I-III) luciferase % inhibition ([12]; 2.5µM): -10%; gametocyte early stage (I-III) luciferase % inhibition ([12]; 5µM): -8%; solubility kinetic [13]: < 20 µM
